Measured values from PMC12320299 (Chemical Science, 2025).

Experiments:
Type in all cases: physicochemical
[1] = Solubility in phosphate buffered saline; details: PBS with 1% DMSO
Excerpt: Fig. 2 (A) Chemical structures of the investigated naphthoquinone-based metal(arenes) in this study.

[2] = Reactivity with mixture of small biological nucleophiles by ESI-MS; details: for reaction with nucleophile mixture within 24 h: 50 μM; for Intact compound after 24 h, nucleophile mixture: equimolar Cys/Met/His/ATP/GTP, each 50 μM, ESI-MS
Procedure: Then, the compounds were analogously incubated with an equimolar mixture of cysteine, methionine, histidine, adenosine triphosphate and guanosine triphosphate to verify coordination preferences for amino acids over nucleotides. The reactivity of the four compounds was qualitatively similar, characterized by release of the NQ ligands and formation of mainly methionine and histidine-adducts with the metal(arene) (ESI, Fig. S13 ^†). No metalation of the nucleotides was observed. In contrast to other O,O-ligand systems, which are typically deactivated within minutes by ligand release under such conditions,[51,52] the N,O,O-tridentate organometallics studied here were characterized by increased stability. […] Again, the 3-Morph-NQ ligand was detected upon release from the metal centre, but hydrolysis dimers were not observed in the presence of bionucleophiles (ESI, Fig. S13 ^†). The reactivity of the compounds towards an equimolar concentration of the model protein ubiquitin was characterized by similar kinetic behaviours and reactivity (ESI, Fig. S14 ^†). […]
aliquot was used for stability testing of the respective test substance in aqueous solution. […]
2b were equimolarly added (50 µM) to a mixture of three amino acids and two nucleotides (Cys/Met/His/ATP/GTP; each 50 µM in aqueous solution) to test the interaction with small biological nucleophiles. All samples were mixed and incubated in a shaking incubator at 37 °C with speed set to 1000 rpm in the dark (Eppendorf ThermoMixer® C). After 1.5 h, 24 h and 72 h, 300 µL per sample were transferred to fresh reaction vessels, immediately frozen in liquid N2 and stored at –20 °C until measurement.
(§1) Samples were diluted to a concentration of 2.5 µM with an organic eluent (49.5% v/v acetonitrile, 49.5% v/v methanol,1% v/v H2O), except ubiquitin containing samples which were diluted to the same concentration with acidified H2O (0.1% v/v formic acid). The samples were then analysed by flow-injection using an amazon speed ETD ion trap (Bruker Daltonics) in the positive ion mode over 0.4 min using the following experimental parameters: HV capillary ±4.5 kV, end plate offset –500 V, dry temp 180 °C, nebulizer 3 bar, dry gas 5 L min-1, scan range m/z 200–1400, target mass m/z 900, flow rate 5 µL min-1. For ubiquitin containing samples, the scan range was adapted to m/z 300– 2200 with a target mass of m/z 1100. Data

[3] = Stability in aqueous solution by ESI-MS; details: 50 μM, share of total intensity
Procedure: In order to elucidate the transformation products of hydrolysis at micromolar concentrations, the four compounds were analogously incubated at 50 μM and analysed by ESI-MS[34] in a time-dependent manner after 1.5 h, 24 h and 72 h. The four complexes of this series were quite stable over 24 h (ESI, Fig. S12 ^†), but gradually released the NQ-ligands over the course of 72 h, which was observed by the formation of characteristic metal(cymene)-dimers containing pyrazole as bridging ligands. In addition, the observation of the free 3-Morph-NQ ligand after 24 h further supported the previously established activation mechanism (ESI, Fig. S12 ^†). A mass signal, which was probably generated by in-source fragmentation corresponded to pyrazole-release. […] In general, the intensity of the intact compounds after 24 h at 50 μM corresponded to approximately 40% of the total intensity of the mass spectrum in all four cases, not accounting for ionization efficiency (Fig. 2B).
Stability Study by UV-Vis Spectroscopy […]
(§2) 80 µM. The stability of the compounds was monitored in a UV-Vis spectrophotometer (Perkin Elmer lambda 35 photometer) over 96 h by acquiring an UV-Vis spectrum every 30 mins. The percentage of the remaining intact compound was calculated by the ratio of the maximum absorbance of the tridentate complexes’ characteristic absorption band around 350– 370 nm after a given timepoint (A) compared to the one directly after dilution (A0). […]
as §1, with “For ubiquitin containing samples, the scan range was adapted to m/z 300– 2200 with a target mass of m/z 1100. Data” left out

[4] = Stability study by UV-Vis spectroscopy in PBS (1% DMSO); details: 40 μM 1a/2a, 80 μM 1b/2b
Procedure: Stability Study by UV-Vis Spectroscopy
All four compounds were freshly diluted in PBS (1% DMSO) from a DMSO stock solution at […]
as §2

SMILES | Solubility in PBS [1] [µM] | reaction with nucleophile mixture within 24 h [2] | Intact compound after 24 h, nucleophile mixture [2] [%] | Intact compound after 24 h, aqueous medium [3] [%] | intact complex, UV-vis, 24 h [4] [%] | intact complex, UV-vis, 96 h [4] [%]
CCC1=C2[O][Ru][O]C2(n2cccn2)c2ccccc2C1=O.Cc1ccc(C(C)C)cc1 (centres unmarked) [Compound 1a, [(3-ethyl-4-oxo-(pyrazolyl)-dihydronaphthalene)(cymene)ruthenium(II)]] | 170 | reacted nearly quantitatively | 4 | 42 | 75 | 53
Cc1ccc(C(C)C)cc1.O=C1C(CN2CCOCC2)=C2[O][Ru][O]C2(n2cccn2)c2ccccc21 (centres unmarked) [Compound 1b] | 1220 | reacted nearly quantitatively | 7 | 47 | 76 | 64
CCC1=C2[O][Os][O]C2(n2cccn2)c2ccccc2C1=O.Cc1ccc(C(C)C)cc1 (centres unmarked) [Compound 2a] | 210 | – | 19 | 45 | 85 | 61
